Assays:
PsrfA = conditions: ref Magnuson et al. [1994], Okada et al. [2005], [2007], Dogsa et al. [2021], cited from earlier work
Protocol: (§1) To allow for this optimization strategy, profound quantitative knowledge must be gathered as an initial step. This was done in the presented study regarding surfactin production and ComX pheromone progression, providing new insights into this crosstalk. Several bioreactor batch fermentations with different initial glucose concentrations were performed to illustrate different lengths of growth phases of B. subtilis DSM 10^ T. Thereby the general progression of ComX activity was consistent for all bioreactor set-ups, regardless of varying experimental set-ups. During exponential growth, an initi ...

extracellular proteases = experiment: ComX extracellular degradation in cell-free supernatant of bioreactor cultivation; assay type: in vitro ADME, B. subtilis DSM 10T; conditions: spectinomycin 100 µg/mL, incubated 120 rpm, 37 °C, sampled 0-8 h, ComX bioassay, biological duplicates
Protocol: (§2) Due to the high complexity of ComX purification, the pheromone was measured with a bioassay based on the principle provided by Magnuson et al. ([1994]). Thereby, reporter strain CT2 (∆comX::kan; PsrfA-lacZ) can be used as an assay reagent and a ComX-dependent expression of lacZ can be determined by measuring the β-galactosidase activity with the Miller assay (Miller [1972]). The employed bioassay is further in line with a recently published method, provided by Dogsa et al. ([2021]). A detailed description of the working principle and further validation experiments are given in the supplementary information. In brief, a main culture of strain CT2 was inoculated with preculture II to a starting OD600 of 0.1 and incubated for 3 h at 120 rpm and 37 °C. […] Bnk values were measured using the respective sterile cultivation medium instead of sampled cell-free supernatant. The limit of detection (LOD) and limit of quantification (LOQ) was calculated from 20 samples using Eqs. […]
Cell-free supernatant was obtained from bioreactor cultivation with 40 g/L glucose by two centrifugation steps for 30 min at 4816 g and 4 °C (Heraeus X3R, Thermo Fisher Scientific GmbH, Braunschweig, Germany). […] Samples were taken after t = 0, 1, 2, 3, 4, 6 and 8 h and analyzed for ComX and peptidase activity and the ComX degradation rate in (MU/h) was calculated from the measured data.

[1] = assay type: physicochemical; conditions: pH 7
Protocol: as §2
(§3) For autodegradation studies, strain DSM 10^ T was additionally cultivated in 3000 mL shake flasks using MSM with 40 g/L glucose. […] The incubation was performed in biological duplicates for 24 h at 120 rpm and 37 °C and samples were taken regularly and analyzed for OD600, ComX and peptidase activity.

[2] = tested on: B. subtilis BKK31700 (∆comX); experiment: ComX intracellular degradation: ComX deficient strain cultivated in spent medium; assay type: in vitro ADME; conditions: ComX bioassay, biological duplicates
Protocol: as §2, §3

[3] = cited from earlier work
Protocol: The LC–MS analysis of extracellular ComX also confirmed degradation after reaching a peak during cultivation process, which was also detected by the bioassay (Additional file 1: Figure S2a). Resembling Henkel et al. ([2013]), experiments were performed with respect to (i) autodegradation, (ii) extracellular degradation and (iii) intracellular degradation (Fig. 1), to obtain deeper understanding of the degradation kinetics of ComX. […] Here, an increase in EACSP was initially observed and, after reaching a maximum, a slight downward trend was seen, which was also accompanied by calculated degradation rates. The highest modeled EACSP = 66.3 ∆A/(h·mL) was reached after 20.5 h, which is concomitant to the highest measured degradation rate after 16 h. […] However, to unveil a potential autodegradation effe ... || To allow for this optimization strategy, profound quantitative knowledge must be gathered as an initial step. This was done in the presented study regarding surfactin production and ComX pheromone progression, providing new insights into this crosstalk. Several bioreactor batch fermentations with different initial glucose concentrations were performed to illustrate different lengths of growth phases of B. subtilis DSM 10^ T. Thereby the general progression of ComX activity was consistent for all bioreactor set-ups, regardless of varying experimental set-ups. During exponential growth, an initi ...

[4] = ref Rangarajan and Clarke [2015]; cited from earlier work
Protocol: as §1

Substance	ComX concentration at saturation of response (PsrfA)	EC50 (PsrfA; read-out: ComX concentration at half maximum response) [nM]	ComX degradation rate (highest) (extracellular proteases; cell-free supernatant from bioreactor cultivation 40 g/L glucose taken after approximately 16 h) [MU/h]	ComX degradation rate (extracellular proteases; cell-free supernatant from bioreactor cultivation 40 g/L glucose taken after approximately 35 h) [MU/h]	remaining ComX activity after 8 h of incubation (autodegradation study) [1] [MU]	ComX activity remaining after 24 h of cultivation (intracellular degradation study) ([2]; BKK31700 cells in spent filtered medium of DSM 23778, 4 g/L glucose added, 24 h, 120 rpm, 37 °C) [MU]	initial ComX activity at t0 (intracellular degradation study) ([2]; washed BKK31700 cells resuspended in spent filtered medium of DSM 23778, 4 g/L glucose added) [MU]	heat stability of ComX (time stable) ([3]; at 80 °C, ref Magnuson et al. ([1994])) [h]	sensitivity of ComX to extracellular proteases ([3]; especially serine proteases, ref Spacapan et al. ([2018]) and Magnuson et al. ([1994]))	storage time after which a degradation effect was observed ([3]; purified ComX, storage, ref Dogsa et al. ([2021])) [days]	stability of ComX in acidic environments ([3]; ref Okada et al. [2007])	pH at which surfactin precipitation may occur [4] [pH]
ADPITRQ WGD [ComX, quorum sensing pheromone of B. subtilis, farnesylated peptide secreted into culture supernatant; not purified, measured in supernatant]	around 10 nM	3 to 4	9.2 ± 2.1	8.4 ± 0.5	251.1 ± 17.1	103.2 ± 11.4	96.5 ± 3.0	12	sensitive to extracellular proteases	100	does not appear to be stable	
surfactin												5.0 to 6.0

Source: article PMC8556439, “Modeling the time course of ComX: towards molecular process control for Bacillus wild-type cultivations” (AMB Express, 2021)
